Laboratory results reported in patent US20130178835A1, “IDENTIFYING SYNTHETIC LIGANDS THAT BIND T-CELLS FROM PATIENTS HAVING AN AUTOIMMUNE DISEASE” (The Board of Regents of the University of Texas System, priority 2009, published 2013).
Entries after “also recorded” stand apart in the source; their conditions may differ. Non-standard residues stand in square brackets, D forms with d. Residues, ends and D or L forms follow the SMILES beside them. Nrpe = C[C@@H](NCC(=O)O)c1ccccc1; NFurfurylGly = O=C(O)CNCc1ccco1; Nleu = CC(C)CNCC(=O)O; Nlys = NCCCCNCC(=O)O

Assays:
[1] = system: CD4+ T cells from B10.PL wild-type control mice; assay: Binding of quantum dot-labeled T cells to peptoid resynthesized on beads; set-up: species or system mouse; conditions: Tentagel beads, red quantum dot-labeled T cells
Protocol: Approximately 300,000 beads were swelled in DMF, washed with PBS, and equilibrated in complete RPMI 1640 media containing 3% BSA. CD4+ T cells isolated from either EAE or wild-type mice were resuspended in RPMI and labeled using quantum dots (Invitrogen) according to manufacturer's instructions. […] Labeled cells were mixed in a 1:1 ratio with a total of approximately 10×10^6 of each cell type. The cells were then incubated with the peptoid bead library overnight in a 37° C. incubator with 5% CO2 and gentle shaking. The beads were gently washed 2 times with RPMI media and were then visualized under a fluorescent microscope (Olympus BX-51) with excitation 340-380 nm using a DAPI filter (100×total magnification). Beads binding only to red labeled cells were selected manually using a 20 μl pipette. The “hit” beads were then washed, boiled with 1% SDS for 30 minutes and subjected to automated Edman sequencing.
(§1) To determine whether AG12A was binding to the autoreactive TCR, the inventors took advantage of the existence of transgenic mice, in which the vast majority of CD4+ T cells express the MBP Acl-11 specific TCR (Vα2.3/Vβ8.2 TCR) (Goverman et al., 1993). CD4+ T cells were isolated from these mice and tested for binding to AG12A. This was done in several ways. First, AG12A was resynthesized on beads, as was a control peptoid not selected as a T cell ligand (FIG. 6). […]

[2] = system: Vα2.3/Vβ8.2 MBP Acl-11 TCR transgenic T cells; assay: Flow cytometry binding assay (periodate cross-linking, streptavidin-APC MFI); set-up: species or system mouse; conditions: biotin-DOPA-AG12A 1-500 μM, cross-linked with periodate; MFI fitted with Graphpad Prism; estimated
Protocol: Following isolation of CD4+ T cells from TCR transgenic mice and WT controls, cells were washed and resuspended in 0.1% PBS/BSA (FACS buffer). The cells were incubated with increasing concentrations (1 μM, 10 μM, 100 μM, 250 μM, or 500 μM) of either the biotin-DOPA-AG12A peptoid or a biotin-DOPA-control peptoid and incubated for 30 min at 37° C. 5 mM sodium periodate was added to the cells briefly to cross-link the peptoid to the target receptor. This reaction was quenched with DTT and the cells were washed twice with 0.1% PBS/BSA. Fc block (BD Biosciences) was added to the cells for 15 min on ice in order to reduce non-specific binding to Fc receptors. The cells were stained with 1 μg anti CD4-PerCp Cy5.5 antibody and 0.02 μg streptavidin-APC antibody (BD Biosciences) for 15 minutes on ice. The staining was followed by 2 washes with 0.1% PBS/BSA and the cells were run on a FACS Calibur flow cytometer to assess peptoid binding. The data were analyzed using Flowjo software (Treestar) to determine the mean fluorescent intensity and are shown as histograms. The mean fluorescent intensities (MFI) were plotted using Graphpad Prism software to determine an estimated Kd value and are depicted as a line graph.

[3] = system: CD4+ T cells from MOG 35-55 TCR transgenic mice; assay: CFSE proliferation assay; type: cell-based, mouse; conditions: 1-500 μM peptoid, stimulated with MOG 35-55 peptide and antigen presenting cells
Protocol: (§2) Following CD4+ T cell isolation, Vα2.3Vβ8.2 TCR transgenic T cells, B cells, or MOG-35-55 TCR transgenic T cells were labeled with CFSE (molecular probes) according to manufacturer's instructions. Briefly, cells were resuspended at a concentration of 1×10^6 per ml in PBS and incubated with 0.5 μM CFSE at 37° C. for 10 min. The staining was quenched with addition of 5 volumes of culture media containing 10% FBS. The cells were centrifuged, washed, and resuspended in complete RPMI 1640 media. The cells were then plated at 1×10^6 per ml. and incubated with increasing concentrations of either AG12A peptoid or a control peptoid (1 μM, 10 μM, 20 μM, 40 μM, 60 μM, 80 μM, 100 μM, 200 μM, or 500 μM) for 30 min at 37° C. Antigen presenting cells were isolated from spleens of WT B10.PL mice and 10 μg/ml of MBP Acl-11, MOG 35-55, or LPS were then added to the culture to stimulate the cells. The cells were left in culture for 5 days, stained with an anti-CD4-PerCp antibody (BD Biosciences), and run on the FACS Calibur flow cytometer to assess cell division. The data were analyzed using Flowjo software (Treestar) proliferation platform to determine percentage of dividing cells. The percent division was graphed using Graphpad Prism software and depicted as a line graph.

[4] = system: CD4+ MBP Acl-11 specific murine TCR transgenic T cells; assay: CFSE proliferation assay; type: cell-based, mouse; conditions: 1-500 μM peptoid, MBP Acl-11 peptide 10 μg/ml and antigen presenting cells, 5 days
Protocol: as §2

[5] = system: B cells from B10.PL wild-type mice; assay: CFSE proliferation assay; type: cell-based, mouse; conditions: 1-500 μM peptoid, stimulated with LPS
Protocol: as §2

[6] = system: CD4+ T cells from MBP Acl-11 TCR transgenic mice; assay: Binding of quantum dot-labeled T cells to peptoid resynthesized on beads; set-up: species or system mouse; conditions: Tentagel beads, red quantum dot-labeled T cells
Source text: Approximately 300,000 beads were swelled in DMF, washed with PBS, and equilibrated in complete RPMI 1640 media containing 3% BSA. CD4+ T cells isolated from either EAE or wild-type mice were resuspended in RPMI and labeled using quantum dots (Invitrogen) according to manufacturer's instructions. CD4+ T cells from EAE mice were labeled with Qtracker 655 (red) and CD4+ T cells from wild-type mice were labeled with Qtracker 565 (green). Labeled cells were mixed in a 1:1 ratio with a total of approximately 10×10^6 of each cell type. The cells were then incubated with the peptoid bead library overnight in a 37° C. incubator with 5% CO2 and gentle shaking. The beads were gently washed 2 times with RPMI media and were then visualized under a fluorescent microscope (Olympus BX-51) with excitation 340-380 nm using a DAPI filter (100×total magnification). Beads binding only to red labeled cells were selected manually using a 20 μl pipette. The “hit” beads were then washed, boiled with 1% SDS for 30 minutes and subjected to automated Edman sequencing.
as §1, with “AG12A.” for “AG12A. This was done in several ways. First, AG12A was resynthesized on beads, as was a control peptoid not selected as a T cell ligand (FIG. 6).”

## CC(C)CN(CC(=O)N(CCCCN)CC(=O)N(CC(=O)N(CC(=O)N(CCCCN)CC(=O)N(CC(=O)N(CCCCN)CC(=O)N(CCCCN)CC(N)=O)CC(C)C)[C@H](C)c1ccccc1)Cc1ccco1)C(=O)CNCCCCN [AG12A] (H-[Nlys][Nleu][Nlys][NFurfurylGly][Nrpe][Nlys][Nleu][Nlys][Nlys]-NH2)
[1]
  binding of T cells to peptoid displayed on beads: did not; also recorded: do not bind
[2]
  Kd: ~40 µM
[3]
  inhibition of proliferation (percent division): did not inhibit
[4]
  inhibition of proliferation (percent division): inhibits proliferation
[5]
  inhibition of proliferation (percent division): nor did AG12A inhibit
[6]
  binding of T cells to peptoid displayed on beads: bound; also recorded: bind to AG12A peptoid beads
